Where a name gives a salt, the structure may show the parent alone.
What was measured:
AhR [1] = target: T1, AhR (Homo sapiens, UniProt P35869); assay: AhR antagonism in human PBMCs - inhibition of interleukin-22 (IL-22) release; type: cell-based; conditions: human PBMCs activated with CD3/CD28 agonist; IL-22 release after 72 hrs, against endogenously produced AhR agonists; arithmetic mean of two or more tests; read-out: PBMC Assay (pIC50) (converted)
T1 construct: PBMCs were isolated from human peripheral blood using Lymphoprep; endogenous in cells
T1 sequence (P35869 11-848): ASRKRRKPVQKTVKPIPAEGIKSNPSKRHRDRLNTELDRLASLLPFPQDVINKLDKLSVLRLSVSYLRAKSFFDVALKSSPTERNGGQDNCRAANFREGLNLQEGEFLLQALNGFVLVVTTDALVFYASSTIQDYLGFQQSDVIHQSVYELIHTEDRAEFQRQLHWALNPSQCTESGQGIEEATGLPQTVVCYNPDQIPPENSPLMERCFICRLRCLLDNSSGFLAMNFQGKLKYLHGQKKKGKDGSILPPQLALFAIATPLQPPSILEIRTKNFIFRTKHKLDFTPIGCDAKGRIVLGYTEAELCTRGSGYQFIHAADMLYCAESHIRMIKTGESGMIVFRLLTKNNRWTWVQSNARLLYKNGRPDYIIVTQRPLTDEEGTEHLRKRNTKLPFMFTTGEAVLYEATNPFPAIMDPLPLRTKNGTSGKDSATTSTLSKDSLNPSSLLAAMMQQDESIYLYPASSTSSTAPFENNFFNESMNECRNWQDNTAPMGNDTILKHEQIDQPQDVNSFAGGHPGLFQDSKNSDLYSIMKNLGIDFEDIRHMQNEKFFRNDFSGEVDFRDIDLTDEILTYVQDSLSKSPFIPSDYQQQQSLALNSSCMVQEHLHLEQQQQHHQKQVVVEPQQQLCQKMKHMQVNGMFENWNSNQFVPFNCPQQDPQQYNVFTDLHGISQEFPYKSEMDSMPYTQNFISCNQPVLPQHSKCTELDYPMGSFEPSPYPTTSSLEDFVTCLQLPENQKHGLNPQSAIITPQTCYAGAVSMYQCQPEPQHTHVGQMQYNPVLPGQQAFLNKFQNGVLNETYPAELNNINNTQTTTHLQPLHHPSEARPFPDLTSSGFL
Description: (§1) Examples were tested in selected biological assays two or more times. Data are reported as the arithmetic mean of the pIC50 (-log10IC50) values, where IC50 is defined as the concentration of compound producing a 50% inhibition of the agonist response. In the case of the U937 assay, VAF347 was used as the agonist; in the peripheral blood mononuclear cell (PBMC) assay the effects of the test compounds are assessed against endogenously produced AhR agonists generated following PBMC activation.
In Vitro Assay 2: AhR Antagonism in Human Peripheral Blood Mononuclear Cells (PBMCS) -Inhibition of Interleukin-22 (IL-22) Release
PBMCs were isolated from human peripheral blood using Lymphoprep™ and diluted to 1 × 10^6 cells per ml in RPMI media containing 10% foetal bovine serum, 1% penicillin-streptomycin and 1% non-essential amino acids. PBMCs were subsequently activated with 1 µl per 100,000 cells of a CD3/CD28 agonist mixture (human T Cell TransAct™(Miltenyi Biotec)) and then plated at 100,000 cells per well in a round bottom 96 well tissue culture plate. One hour after stimulation seven concentrations of each test compound or vehicle (final [DMSO] 0.2%) were added. The plates were then placed in an incubator at 37° C., ≥ 85% humidity, 5% CO2 for 72 hrs before the media was removed and stored at -20° C. until cytokine analysis. IL-22 was measured using human IL-22 DuoSet ELISA (R&D systems) according to the manufacturer’s instructions.

AhR [2] = target: T1, AhR; assay: AhR antagonism in U937 cells (Promega P450-Glo assay); type: cell-based; conditions: inhibition of 4.5 nM VAF347 agonist response, CYP1A1 activity (Luciferin-CEE) after 24 hrs, arithmetic mean of two or more tests, read-out: U937 Assay (pIC50) (converted)
Description: as §1
In Vitro Assay 1: AhR Antagonism in U937 Cells (Promega P450-Glo™ Assay)
AhR antagonism was assessed in U937 cells (myeloid lineage cell line derived from a human histiocytic lymphoma). Ligand binds the AhR in the cytoplasm, and the AhR-ligand complex translocates to the nucleus and forms a heterodimer with AhR nuclear translocator (Arnt). This complex binds the xenobiotic response element (XRE) in the 5′ upstream region of the CYP1A1 promoter, enhancing CYP1A1 expression. CYP1A1 activity is subsequently determined by assessing the conversion of Luciferin-CEE to luciferin, which in turn reacts with luciferase to produce light. The amount of light produced is directly proportional to cytochrome P450 activity.
U937 cells in Ultraculture serum free media (Lonza) were plated at 100,000 cells per well in a round bottom 96 well tissue culture plate. Seven concentrations of test compound (final [DMSO] 1%) were added and incubated for 10 minutes before the addition of 4.5 nM VAF347. The plates were then placed in an incubator at 37° C., ≥ 85% humidity, 5% CO2 for 24 hrs. After aspiration of the supernatant the CYP1A1 substrate Luciferin-CEE ([Final] 83 µM) was added and incubated for 3 hrs before the reaction was stopped by adding luciferin detection reagent and luminescence was read after 20 minutes.

Compound	IC50 (AhR [1])	IC50 (AhR [2])
COc1ccc2c(CCNc3nc(-c4cncc(F)c4)nc4c3CCNC4)c[nH]c2c1 [Example 1, 2-(5-fluoropyridin-3-yl)-N-[2-(6-methoxy-1H-indol-3-yl)ethyl]-5H,6H,7H,8H-pyrido[3,4-d]pyrimidin-4-amine]	0.126 µM	0.126 µM
COc1ccc2c(CCNc3nc(-c4cncc(F)c4)nc4c3CNC4)c[nH]c2c1 [Example 5, 2-(5-fluoropyridin-3-yl)-N-[2-(6-methoxy-1H-indol-3-yl)ethyl]-5H,6H,7H-pyrrolo[3,4-d]pyrimidin-4-amine]	0.398 µM	0.2 µM
COc1cncc(-c2nc3c(c(NCCc4c[nH]c5ccccc45)n2)CCNC3)c1 [Example 9, N-[2-(1H-indol-3-yl)ethyl]-2-(5-methoxypyridin-3-yl)-5H,6H,7H,8H-pyrido[3,4-d]pyrimidin-4-amine]	0.794 µM	0.02 µM
FC(F)(F)c1cncc(-c2nc3c(c(NCCc4c[nH]c5ccccc45)n2)CCNC3)c1 [Example 10, N-[2-(1H-indol-3-yl)ethyl]-2-[5-(trifluoromethyl)pyridin-3-yl]-5H,6H,7H,8H-pyrido[3,4-d]pyrimidin-4-amine]	0.794 µM	0.0251 µM
COc1ccc2[nH]c(C)c(CCNc3nc(-c4cncc(F)c4)nc4c3CCNC4)c2c1 [Example 14, 2-(5-Fluoropyridin-3-yl)-4-{[2-(5-Methoxy-2-Methyl-1H-Indol-3-yl)Ethyl]Amino}-5H,6H,7H,8H-Pyrido[3,4-d]Pyrimidin-7-ium Chloride]	0.631 µM	0.1 µM
CCN1CCc2nc(-c3cncc(F)c3)nc(NCCc3c[nH]c4cc(OC)ccc34)c2CC1 [Example 15, 7-ethyl-2-(5-fluoropyridin-3-yl)-N-[2-(6-methoxy-1H-indol-3-yl)ethyl]-5H,6H,7H,8H,9H-pyrimido[4,5-d]azepin-4-amine]	0.631 µM	0.158 µM

Other lines, results leading:

IC50 (AhR [1])	IC50 (AhR [2])	Compound
0.2 µM	0.316 µM	COc1ccc2c(CCNc3nc(-c4cncc(F)c4)nc4c3CCNCC4)c[nH]c2c1 [Example 16, 2-(5-fluoropyridin-3-yl)-N-[2-(6-methoxy-1H-indol-3-yl)ethyl]-5H,6H,7H,8H,9H-pyrimido[4,5-d]azepin-4-amine]
0.0251 µM	0.0501 µM	COc1ccc2c(CCOc3nc(-c4cncc(F)c4)nc4c3CCNC4)c[nH]c2c1 [Example 17, 3-(2-{[2-(5-Fluoropyridin-3-yl)-5H,6H,7H,8H-Pyrido[3,4-d]Pyrimidin-4-yl]Oxy}Ethyl)-6-Methoxy-1H-Indole Hydrochloride]
0.316 µM	0.02 µM	Fc1cncc(-c2nc3c(c(NCCc4c(C(F)(F)F)[nH]c5ccccc45)n2)CCNC3)c1 [Example 18, 2-(5-Fluoropyridin-3-yl)-4-({2-[2-(Trifluoromethyl)-1H-Indol-3-yl]Ethyl}Amino)-5H,6H,7H,8H-Pyrido[3,4-d]Pyrimidin-7-ium Chloride]

Source: patent US20230279000A1, “PYRIDOPYRIMIDINE DERIVATIVES USEFUL IN MODULATION OF AHR SIGNALLING” (JAGUAHR THERAPEUTICS PTE LTD, priority 2020, published 2023)
